Ki and IC50 data for 3 compounds are collected here from article PMC6282583 (Chemmedchem, 2018).

In test [1] the target is T1, endothiapepsin (Cryphonectria parasitica, UniProt P11838).
T1 sequence (P11838 90-419): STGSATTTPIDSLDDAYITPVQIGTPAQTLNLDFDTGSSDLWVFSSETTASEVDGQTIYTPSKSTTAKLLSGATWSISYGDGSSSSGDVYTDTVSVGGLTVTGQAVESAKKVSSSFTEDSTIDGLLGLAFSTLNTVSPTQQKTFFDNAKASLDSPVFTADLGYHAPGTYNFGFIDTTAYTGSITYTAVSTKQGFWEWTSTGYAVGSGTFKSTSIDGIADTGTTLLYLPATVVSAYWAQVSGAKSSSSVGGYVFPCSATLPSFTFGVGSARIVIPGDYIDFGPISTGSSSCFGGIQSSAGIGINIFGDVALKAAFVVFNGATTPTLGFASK
The test can be described thus: fluorescence-based protease assay adapted from HIV-protease assay. Format: biochemical.

Test [2] concerns the target T1, endothiapepsin. The description is as above. Format: biochemical. This is another data set of the same source.

For the compound `Cc1cc(C)c(CCNC(=O)[C@@H](N)Cc2c[nH]c3ccccc23)c(C)c1` [(S)-2], the affinity on endothiapepsin [1] corresponds to a Ki of 6.1 ± 0.4 µM. This compound also had an IC50 against endothiapepsin [2] of 12.9 ± 0.7 µM.

In turn, `Cc1cc(C)c(Cc2csc([C@@H](N)Cc3c[nH]c4ccccc34)n2)c(C)c1` [(S)-4] registered a Ki on endothiapepsin [1] of 91.2 ± 5.4 µM. Moreover, it took 194 ± 11.4 µM to reach half-maximal inhibition on endothiapepsin [2] (IC50).

Take `Cc1cc(C)c(CCOC(=O)[C@@H](N)Cc2c[nH]c3ccccc23)c(C)c1` [(S)-3]: the Ki on endothiapepsin [1] came out at 13.5 ± 1.9 µM. The compound also had an IC50 against endothiapepsin [2] of 28.7 ± 4.1 µM.

The term Ki denotes the equilibrium dissociation constant of an inhibitor or competing ligand from its target. By IC50 is commonly meant the concentration needed to halve the response being measured.
